Reference: patent publication US20230127906A1, “FORMULATIONS FOR EXTENDING LIFESPAN AND HEALTHSPAN” (Buck Institute for Research on Aging, priority 2017, published 2023)
“Also recorded” adds a separate entry of the source.

Columns and labels:
C57BL/6J mice = assay: 31-item clinical frailty index in aged mice (total score and individual metrics); type: in vivo; conditions: for alopecia scores (hair loss): four month treatment starting at 18 months of age, FIG. 35; for piloerection: four month treatment, FIG. 37
From the text: C57BL/6J mice of both sexes are aged in group caging in an approved animal facility. Mice are maintained on a 12-hour light/dark cycle, with free access to food and water. In general, initiation of interventions occurs in mice after 12 months of age and is maintained throughout the lifespan of the mice. However, short term or periodic interventional strategies may also be tested.
Mice are randomly assigned to either treatment or control group, and administered compositions of active agents or placebo (control) in food for a sufficient treatment period to observe effects on frailty characteristics.
Mice are periodically evaluated on the 31-item clinical frailty index previously described herein. This was first reported by Whitehead et al. (Journals of Gerontology: BIOLOGICAL SCIENCES, 69:621-632; 2014). This has been used in studies recently as a valuable metric of mouse frailty that involves non-invasive scoring ideal for longitudinal studies and corresponds well with the onset of human frailty (Rockwood et al., Scientific Reports, 7, 43068, 2017).
The 31 point metric for assessment of animal frailty is included in the following table:
For all individual frailty metrics shown, a similar strategy was used to assess frailty score. Using a double blind method, scorers were asked to assess the relative score of each animal either as 0 (healthy), 0.5 (moderately unhealthy) and 1 (unhealthy). For total frailty, all 31 metrics are added and divided by 31. For cohort 2, we report the total frailty score simply as the sum of all 31 metrics without normalization.
Loss of fur color and appearance of grey hair is used interchangeably.
Alopecia or hair loss is used interchangeably.
Kyphosis is a measure of exaggerated outward curvature of the lower cervical/thoracic vertebral column, and can reflect either loss of bone density or increased muscle weakness.
Tremors are a measure of involuntary shaking at rest or during movement. Dermatitis is a routine occurrence in aging C57/B16 mice.
Piloerection is defined as involuntary hair bristling and can be thought of similarly to “goose bumps.” This increases with age and can be triggered by coldness, reflecting an inability of the mice to maintain body temperature.
Mice are randomly assigned to either treatment or control group, and administered compositions comprising Ca-AKG or placebo in food for a sufficient treatment period to observe effects on frailty characteristics.
Mice are periodically evaluated on the 31-item clinical frailty index previously described herein.

inflammatory cytokines = assay: Inflammatory cytokine levels in aged mice; type: in vivo; conditions: three month treatment starting at 18 months of age, animals at 21 months, Cohort 2, FIG. 24
IMR-90 fibroblasts = assay: Cell senescence assay, irradiated cells, β-galactosidase; type: cell-based; conditions: cells pre-treated prior to irradiation, FIG. 12
Procedure: To measure the effects of Ca-AKG on cell senescence, IMR-90 fibroblasts in culture were exposed to gamma-irradiation either after pretreatment with AKG or prior to (post) treatment with Ca-AKG. Cell senescence was measured by β-Galactosidase fluorescence.

| Compound | alopecia scores (hair loss) (C57BL/6J mice; female mice) | piloerection (C57BL/6J mice; female mice) | grey hair (C57BL/6J mice; female mice, measured at 23 months of life, Cohort 1, FIG. 18) | hair loss (C57BL/6J mice; relative to control mice, Cohort 1, FIG. 20, 21) | kyphosis (C57BL/6J mice; relative to control mice, Cohort 1, FIG. 22) | tremors (C57BL/6J mice; relative to control mice, Cohort 1, FIG. 23) | coat graying / grey hair (C57BL/6J mice; vs placebo/control mice, Cohort 1, FIG. 11, 19, 20) | levels of inflammatory cytokines (inflammatory cytokines) | cell senescence, senescence-associated β-galactosidase (beta gal) (IMR-90 fibroblasts) | fur color (coat color) (C57BL/6J mice; female mice, four months treatment starting at 18 months of age, FIG. 36) | frailty scores (frailty index) (C57BL/6J mice; female mice, two months of treatment, Cohort 2, FIG. 10A) | kyphosis index (C57BL/6J mice; male and female mice combined, two months treatment starting at 18 months of age, FIG. 34) | frailty scores (frailty index) (C57BL/6J mice; male mice, 2 months of treatment, Cohort 2, FIG. 10C) |
| --- | --- | --- | --- | --- | --- | --- | --- | --- | --- | --- | --- | --- | --- |
| O=C([O-])CCC(=O)C(=O)[O-].[Ca+2] [Ca-AKG, calcium α-ketoglutarate] | neither Ca-AKG nor RP had significant effects on their own | Neither compound alone had an effect | reduction in grey hair | reduced hair loss; also recorded: reduction in hair loss | reduction in kyphosis | reduction in tremors | dramatically reduced; also recorded: less grey hair than the control mouse; also recorded: less gray hair | prevents, or in some cases even reverses, the increase in levels of inflammatory cytokines | protected cells from irradiation-induced senescence; also recorded: decreases relative to control | – | – | – | – |
| CCCCCCCCCCCCCCCC(=O)OC/C=C(C)/C=C/C=C(C)/C=C/C1=C(C)CCCC1(C)C [RP, retinyl palmitate] | neither Ca-AKG nor RP had significant effects on their own | Neither compound alone had an effect | – | – | – | – | – | – | – | – | – | – | – |
| C=C1CC[C@H](O)C/C1=C/C=C1\CCC[C@]2(C)[C@@H]([C@H](C)CCCC(C)C)CC[C@@H]12 [vitamin D3] | sufficient to reduce alopecia | – | – | – | – | – | – | – | – | younger coat color | lower frailty | reduce the kyphosis index significantly | no significant reduction in frailty |
